Holding throughout (format): cell-based
One assay has as its system E. coli MP-4. The assay can be described thus: Broth dilution MIC determination (CLSI), E. coli MP-4. The note with it: Escherichia coli, MP4; strain MP-4, broth dilution; read-out: MIC E. coli MP-4.
The next assay concerns S. aureus MP-12. The assay can be described thus: Broth dilution MIC determination (CLSI), S. aureus MP-12. The following applies: Staphylococcus aureus, MP12; strain MP-12, broth dilution. (Broth dilution looks for growth in wells or tubes with falling amounts of substance.)
For the next assay, the system named is K. pneumoniae MP-546. The assay can be described thus: Broth dilution MIC determination (CLSI), K. pneumoniae MP-546. The following applies: Klebsiella pneumoniae, MP546; strain MP-546, broth dilution.
The subject of another assay is P. aeruginosa MP-3. The assay can be described thus: Broth dilution MIC determination (CLSI), P. aeruginosa MP-3. The following applies: Pseudomonas aeruginosa, MP3; strain MP-3, broth dilution.
In a further assay the test system is A. baumannii MP-15. The assay can be described thus: Broth dilution MIC determination (CLSI), A. baumannii MP-15. The note with it: Acinetobacter baumannii, MP15; strain MP-15, broth dilution; read-out: MIC A. baumanii MP-15.

Values after ≈ are worked out from the molar mass of the structure shown. Some results are limits rather than exact numbers.

Usually MIC stands for the lowest concentration found to suppress growth. Regarding `CO[C@]1(C)C[C@@H](C)CN(C)[C@H](C2CN(CC(=O)NCc3ccccc3)C2)COC(=O)C(C)(C)C(=O)[C@H](C)[C@H]1O[C@@H]1O[C@H](C)C[C@H](N(C)C)[C@H]1O` [Compound 20, N-benzyl-2-(3-((3R,6R,8R,9R,10R)-9-(((2S,3R,4S,6R)-4-(dimethylamino)-3-hydroxy-6-methyltetrahydro-2H-pyran-2-yl)oxy)-8-methoxy-4,6,8,10,12,12-hexamethyl-11,13-dioxo-1-oxa-4-azacyclotridecan-3-yl)azetidin-1-yl)acetamide], the MIC in the assay on E. coli MP-4 is under 4 µg/mL; against S. aureus MP-12, 4 to 32 µg/mL (≈ 5.69 to 45.5 µM); in the assay with K. pneumoniae MP-546, 4 to 32 µg/mL (≈ 5.69 to 45.5 µM); in the assay with P. aeruginosa MP-3 it was over 32 µg/mL; with A. baumannii MP-15 it was over 32 µg/mL.
Turning to `CO[C@]1(C)C[C@@H](C)CN(CC(C)C)[C@H](C2CN(CC(C)C)C2)COC(=O)C(C)(C)C(=O)[C@H](C)[C@H]1O[C@@H]1O[C@H](C)C[C@H](N(C)C)[C@H]1O` [Compound 21, (3R,6R,8R,9R,10R)-9-(((2S,3R,4S,6R)-4-(dimethylamino)-3-hydroxy-6-methyltetrahydro-2H-pyran-2-yl)oxy)-4-isobutyl-3-(1-isobutylazetidin-3-yl)-8-methoxy-6,8,10,12,12-pentamethyl-1-oxa-4-azacyclotridecane-11,13-dione], the MIC in the assay on E. coli MP-4, against S. aureus MP-12, against K. pneumoniae MP-546, in the assay on P. aeruginosa MP-3 and in the assay with A. baumannii MP-15 was over 32 µg/mL in each case.
Take `CO[C@]1(C)C[C@@H](C)CN(C)[C@@H]([C@@H]2CCCN(C)C2)COC(=O)C(C)(C)C(=O)[C@H](C)[C@H]1O[C@@H]1O[C@H](C)C[C@H](N(C)C)[C@H]1O` [Compound 23, (3S,6R,8R,9R,10R)-9-(((2S,3R,4S,6R)-4-(dimethylamino)-3-hydroxy-6-methyltetrahydro-2H-pyran-2-yl)oxy)-8-methoxy-4,6,8,10,12,12-hexamethyl-3-((R)-1-methylpiperidin-3-yl)-1-oxa-4-azacyclotridecane-11,13-dione]: the MIC in the assay with E. coli MP-4 is 4 to 32 µg/mL (≈ 6.69 to 53.5 µM); in the assay on S. aureus MP-12, over 32 µg/mL; against K. pneumoniae MP-546 it was 4 to 32 µg/mL (≈ 6.69 to 53.5 µM); with P. aeruginosa MP-3, over 32 µg/mL; with A. baumannii MP-15 it was over 32 µg/mL.
Take `CN[C@H]1CC[C@H]([C@H]2COC(=O)C(C)(C)C(=O)[C@H](C)[C@@H](O[C@@H]3O[C@H](C)C[C@H](N(C)C)[C@H]3O)[C@](C)(OC)C[C@@H](C)CN2C)CC1` [Compound 26, (3S,6R,8R,9R,10R)-9-(((2S,3R,4S,6R)-4-(dimethylamino)-3-hydroxy-6-methyltetrahydro-2H-pyran-2-yl)oxy)-8-methoxy-4,6,8,10,12,12-hexamethyl-3-((1r,4S)-4-(methylamino)cyclohexyl)-1-oxa-4-azacyclotridecane-11,13-dione]: the MIC is 4 to 32 µg/mL (≈ 6.54 to 52.3 µM) in the assay on E. coli MP-4; over 32 µg/mL in the assay on S. aureus MP-12; over 32 µg/mL in the assay with K. pneumoniae MP-546; over 32 µg/mL in the assay on P. aeruginosa MP-3; over 32 µg/mL with A. baumannii MP-15.
As for `CO[C@]1(C)C[C@@H](C)CN(CC(C)C)[C@H](C2CN(C(=O)CN(C)C)C2)COC(=O)C(C)(C)C(=O)[C@H](C)[C@H]1O[C@@H]1O[C@H](C)C[C@H](N(C)C)[C@H]1O` [Compound 27, (3R,6R,8R,9R,10R)-9-(((2S,3R,4S,6R)-4-(dimethylamino)-3-hydroxy-6-methyltetrahydro-2H-pyran-2-yl)oxy)-3-(1-(dimethylglycyl)azetidin-3-yl)-4-isobutyl-8-methoxy-6,8,10,12,12-pentamethyl-1-oxa-4-azacyclotridecane-11,13-dione], the MIC with E. coli MP-4, in the assay with S. aureus MP-12, in the assay on K. pneumoniae MP-546, in the assay on P. aeruginosa MP-3 and with A. baumannii MP-15 was over 32 µg/mL throughout.
Turning to `CO[C@]1(C)C[C@@H](C)CN(C)[C@H](C2CN(C(=O)CN(C)C)C2)COC(=O)C(C)(C)C(=O)[C@H](C)[C@H]1O[C@@H]1O[C@H](C)C[C@H](N(C)C)[C@H]1O` [Compound 28, (3R,6R,8R,9R,10R)-9-(((2S,3R,4S,6R)-4-(dimethylamino)-3-hydroxy-6-methyltetrahydro-2H-pyran-2-yl)oxy)-3-(1-(dimethylglycyl)azetidin-3-yl)-8-methoxy-4,6,8,10,12,12-hexamethyl-1-oxa-4-azacyclotridecane-11,13-dione], the MIC in the assay on E. coli MP-4 was under 4 µg/mL; with S. aureus MP-12 it was 4 to 32 µg/mL (≈ 6.24 to 49.9 µM); against K. pneumoniae MP-546 it was under 4 µg/mL; in the assay on P. aeruginosa MP-3, over 32 µg/mL; in the assay on A. baumannii MP-15, over 32 µg/mL.
Consider `CCCN1CC([C@H]2COC(=O)C(C)(C)C(=O)[C@H](C)[C@@H](O[C@@H]3O[C@H](C)C[C@H](N(C)C)[C@H]3O)[C@](C)(OC)C[C@@H](C)CN2C)C1` [Compound 29, (3S,6R,8R,9R,10R)-9-(((2S,3R,4S,6R)-4-(dimethylamino)-3-hydroxy-6-methyltetrahydro-2H-pyran-2-yl)oxy)-8-methoxy-4,6,8,10,12,12-hexamethyl-3-(1-propylazetidin-3-yl)-1-oxa-4-azacyclotridecane-11,13-dione], for which the MIC in the assay with E. coli MP-4 is under 4 µg/mL; in the assay with S. aureus MP-12 it was over 32 µg/mL; against K. pneumoniae MP-546 it was 4 to 32 µg/mL (≈ 6.69 to 53.5 µM); with P. aeruginosa MP-3, over 32 µg/mL; in the assay with A. baumannii MP-15 it was over 32 µg/mL.
`CO[C@]1(C)C[C@@H](C)CN(C)[C@H](c2ccc(Br)cc2)COC(=O)C(C)(C)C(=O)[C@H](C)[C@H]1O[C@@H]1O[C@H](C)C[C@H](N(C)C)[C@H]1O` [Compound 33, (3R,6R,8R,9R,10R)-3-(4-bromophenyl)-9-(((2S,3R,4S,6R)-4-(dimethylamino)-3-hydroxy-6-methyltetrahydro-2H-pyran-2-yl)oxy)-8-methoxy-4,6,8,10,12,12-hexamethyl-1-oxa-4-azacyclotridecane-11,13-dione]: the MIC was 4 to 32 µg/mL (≈ 6.1 to 48.8 µM) in the assay with E. coli MP-4; over 32 µg/mL in the assay with S. aureus MP-12; over 32 µg/mL with K. pneumoniae MP-546; over 32 µg/mL in the assay with P. aeruginosa MP-3; over 32 µg/mL with A. baumannii MP-15.
For `CO[C@]1(C)C[C@@H](C)CN(C)[C@@H]([C@H]2CCCN(C(=O)CN(C)C)C2)COC(=O)C(C)(C)C(=O)[C@H](C)[C@H]1O[C@@H]1O[C@H](C)C[C@H](N(C)C)[C@H]1O` [Compound 34, (3S,6R,8R,9R,10R)-9-(((2S,3R,4S,6R)-4-(dimethylamino)-3-hydroxy-6-methyltetrahydro-2H-pyran-2-yl)oxy)-3-((S)-1-(dimethylglycyl)piperidin-3-yl)-8-methoxy-4,6,8,10,12,12-hexamethyl-1-oxa-4-azacyclotridecane-11,13-dione], the MIC is 4 to 32 µg/mL (≈ 5.98 to 47.8 µM) in the assay with E. coli MP-4; over 32 µg/mL with S. aureus MP-12; over 32 µg/mL in the assay on K. pneumoniae MP-546; over 32 µg/mL in the assay on P. aeruginosa MP-3; over 32 µg/mL with A. baumannii MP-15.
Take `CO[C@]1(C)C[C@@H](C)CN(C)[C@H](C2CN(C(C)C)C2)COC(=O)C(C)(C)C(=O)[C@H](C)[C@H]1O[C@@H]1O[C@H](C)C[C@H](N(C)C)[C@H]1O` [Compound 35, (3R,6R,8R,9R,10R)-9-(((2S,3R,4S,6R)-4-(dimethylamino)-3-hydroxy-6-methyltetrahydro-2H-pyran-2-yl)oxy)-3-(1-isopropylazetidin-3-yl)-8-methoxy-4,6,8,10,12,12-hexamethyl-1-oxa-4-azacyclotridecane-11,13-dione]: the MIC in the assay with E. coli MP-4 is under 4 µg/mL; with S. aureus MP-12 it was over 32 µg/mL; in the assay with K. pneumoniae MP-546 it was 4 to 32 µg/mL (≈ 6.69 to 53.5 µM); in the assay with P. aeruginosa MP-3 it was over 32 µg/mL; with A. baumannii MP-15 it was over 32 µg/mL.
As to `CO[C@]1(C)C[C@@H](C)CN(C)[C@H](C2CN(CC(=O)NC(C)C)C2)COC(=O)C(C)(C)C(=O)[C@H](C)[C@H]1O[C@@H]1O[C@H](C)C[C@H](N(C)C)[C@H]1O` [Compound 36, 2-(3-((3R,6R,8R,9R,10R)-9-(((2S,3R,4S,6R)-4-(dimethylamino)-3-hydroxy-6-methyltetrahydro-2H-pyran-2-yl)oxy)-8-methoxy-4,6,8,10,12,12-hexamethyl-11,13-dioxo-1-oxa-4-azacyclotridecan-3-yl)azetidin-1-yl)-N-isopropylacetamide], the MIC with E. coli MP-4 was 4 to 32 µg/mL (≈ 6.11 to 48.9 µM); against S. aureus MP-12 it was over 32 µg/mL; against K. pneumoniae MP-546, 4 to 32 µg/mL (≈ 6.11 to 48.9 µM); against P. aeruginosa MP-3, over 32 µg/mL; in the assay with A. baumannii MP-15 it was over 32 µg/mL.
For `CCN1C[C@H](C)C[C@@](C)(OC)[C@H](O[C@@H]2O[C@H](C)C[C@H](N(C)C)[C@H]2O)[C@@H](C)C(=O)C(C)(C)C(=O)OC[C@H]1C1CN(C(=O)CN(C)C)C1` [Compound 38, (3R,6R,8R,9R,10R)-9-(((2S,3R,4S,6R)-4-(dimethylamino)-3-hydroxy-6-methyltetrahydro-2H-pyran-2-yl)oxy)-3-(1-(dimethylglycyl)azetidin-3-yl)-4-ethyl-8-methoxy-6,8,10,12,12-pentamethyl-1-oxa-4-azacyclotridecane-11,13-dione], the MIC with E. coli MP-4 was under 4 µg/mL; in the assay with S. aureus MP-12, 4 to 32 µg/mL (≈ 6.11 to 48.9 µM); against K. pneumoniae MP-546 it was 4 to 32 µg/mL (≈ 6.11 to 48.9 µM); in the assay on P. aeruginosa MP-3, over 32 µg/mL; in the assay with A. baumannii MP-15 it was over 32 µg/mL.
Consider `CO[C@]1(C)C[C@@H](C)CN(C)[C@H]([C@H]2CCCN(CC(C)C)C2)COC(=O)C(C)(C)C(=O)[C@H](C)[C@H]1O[C@@H]1O[C@H](C)C[C@H](N(C)C)[C@H]1O` [Compound 39, (3R,6R,8R,9R,10R)-9-(((2S,3R,4S,6R)-4-(Dimethylamino)-3-hydroxy-6-methyltetrahydro-2H-pyran-2-yl)oxy)-3-((S)-1-isobutylpiperidin-3-yl)-8-methoxy-4,6,8,10,12,12-hexamethyl-1-oxa-4-azacyclotridecane-11,13-dione], for which the MIC in the assay on E. coli MP-4 was 4 to 32 µg/mL (≈ 6.25 to 50 µM); against S. aureus MP-12, 4 to 32 µg/mL (≈ 6.25 to 50 µM); in the assay on K. pneumoniae MP-546 it was 4 to 32 µg/mL (≈ 6.25 to 50 µM); against P. aeruginosa MP-3, over 32 µg/mL; in the assay on A. baumannii MP-15 it was over 32 µg/mL.

The values are drawn from patent US20220177508A1, “C10-Cyclic Substituted 13-Membered Macrolides and Uses Thereof” (Zikani Therapeutics, Inc., priority 2018, published 2022).
